According to ChEMBL document CHEMBL4364241, “Developments in the anticancer activity of structurally modified curcumin: An up-to-date review” (Eur J Med Chem, 2019):
One block for each compound: values may come before it.

How the values were obtained:
K562 [1] = assay: Antiproliferative activity against human K562 Cells; type: functional, cell-based
THP-1 = assay: Cytotoxicity against human THP1 Cells; type: functional, cell-based
HeLa [2] = assay: Cytotoxicity against human HeLa Cells; type: functional, cell-based
HepG2 [3] = assay: Cytotoxicity against human HepG2 Cells by MTT/Trypan Blue Exclusion Assay; type: functional, cell-based
L02 [4] = assay: Cytotoxicity against human LO2 Cells; type: functional, cell-based
HepG2 [5] = assay: Cytotoxicity against human HepG2 Cells; type: functional, cell-based
SK-OV-3 [6] = assay: Cytotoxicity against human SKOV3 Cells after 24 hrs by MTT assay; type: functional, cell-based; conditions: SK-OV-3, 24 h
PC-3 [7] = assay: Cytotoxicity against human PC3 cells; type: functional, cell-based
MGC-803 [8] = assay: Cytotoxicity against human MGC803 cells; type: functional, cell-based
Bcap37 = assay: Cytotoxicity against human Bcap37 cells; type: functional, cell-based
[9] = Antiproliferative activity against human K562/G01 cells; type: functional, cell-based
BGC-823 [10] = assay: Antiproliferative activity against human BGC823 cells after 24 hrs by MTT assay; type: functional, cell-based; conditions: BGC-823, 24 h
HT-29 [11] = assay: Cytotoxicity against human HT-29 Cells after 72 hrs by MTT assay; type: functional, cell-based; conditions: HT-29, 72 h
KBM5 = assay: Growth inhibition of human KBM5 cells relative to control; type: functional
MCF7 [12] = assay: Cytotoxicity against human MCF7 Cells after 48 hrs by MTT assay; type: functional, cell-based; conditions: MCF7, 48 h
[13] = Cytotoxicity against human GBM6 Cells 48 hrs by MTS assay; type: functional; conditions: GBM6, 48 h
SW480 = assay: Cytotoxicity against human SW480 Cells after 24 to 48 hrs by MTT assay; type: functional, cell-based
Caco-2 = assay: Cytotoxicity against human Caco2 Cells after 72 hrs by MTT assay; type: functional, cell-based; conditions: Caco-2, 72 h
[14] = Cytotoxicity against human GBM4 Cells 48 hrs by MTS assay; type: functional
[15] = Cytotoxicity against mitoxantrone resistant […] cells expressing BCRP after 15 mins by fluorescence assay; type: functional, cell-based; conditions: Canis lupus familiaris, MDCK2, 0.25 h
CT26 = assay: Cytotoxicity against mouse CT26 cells; type: functional, cell-based
U-251 = assay: Cytotoxicity against human U251MG cells after 48 hrs by MTS assay; type: functional, cell-based; conditions: U-251, 48 h
HeLa [16] = assay: Anticancer activity against human HeLa cells; type: functional, cell-based
[17] = Cytotoxicity against human GBM1 Cells 48 hrs by MTS assay; type: functional; conditions: GBM1, 48 h
BGC-823 [18] = assay: Cytotoxicity against human BGC823 cells; type: functional, cell-based
[19] = Cytotoxicity against human GBM5 Cells 48 hrs by MTS assay; type: functional
RWPE-1 = assay: Cytotoxicity against human RWPE1 cells; type: functional, cell-based
PC-3 [20] = assay: Anticancer activity against human PC3 cells; type: functional, cell-based
AGS [21] = assay: Cytotoxicity against human AGS Cells; type: functional, cell-based
HSC-4 = assay: Cytotoxicity against human HSC4 cells; type: functional, cell-based
L02 [22] = assay: Cytotoxicity against human HL-7702 cells; type: functional, cell-based
K562 [23] = assay: Cytotoxicity against human K562 Cells after 24 to 48 hrs by MTT assay; type: functional, cell-based
SGC-7901 [24] = assay: Cytotoxicity against human SGC7901 cells; type: functional, cell-based
NIH3T3 = assay: Cytotoxicity against mouse 3T3 Cells after 48 hrs by MTT assay; type: functional, cell-based; conditions: NIH3T3, 48 h
SGC-7901 [25] = assay: Antiproliferative activity against human SGC7901 cells after 24 hrs by MTT assay; type: functional, cell-based; conditions: SGC-7901, 24 h
A549 [26] = assay: Cytotoxicity against human A549 Cells by MTT assay; type: functional, cell-based
U-87 MG = assay: Cytotoxicity against human U87MG Cells 48 hrs by MTS assay; type: functional, cell-based, U-87MG ATCC
[27] = Cytotoxicity against human CCD-1059SK Cells after 48 hrs by MTS assay; type: functional
MCF7 [28] = assay: Induction of apoptosis in human MCF7 cells; type: functional, cell-based
A549 [29] = assay: Cytotoxicity against human A549 Cells after 24 hrs by MTT assay; type: functional, cell-based; conditions: A549, 24 h
MGC-803 [30] = assay: Antiproliferative activity against human MGC803 cells after 24 hrs by MTT assay; type: functional, cell-based; conditions: MGC-803, 24 h
SMMC-7721 = assay: Anticancer activity against human SMMC7721 cells after 72 hrs by MTT assay; type: functional, cell-based; conditions: SMMC-7721, 72 h
SK-OV-3 [31] = assay: Cytotoxicity against human SKOV3 Cells after 48 hrs by Cell Titer Blue assay; type: functional, cell-based; conditions: SK-OV-3, 48 h
[32] = Cytotoxicity against human GBM3 Cells 48 hrs by MTS assay; type: functional; conditions: GBM3, 48 h
[33] = Cytotoxicity against human GBM2 Cells 48 hrs by MTS assay; type: functional; conditions: GBM2, 48 h
HL-60 = assay: Cytotoxicity against human HL60 cells; type: functional, cell-based
CHO-K1 = assay: Cytotoxicity against […] Cells after 72 hrs by MTT assay; type: functional, cell-based; conditions: Cricetulus griseus, CHO-K1, 72 h
HepG2 [34] = assay: Cytotoxicity against human HepG2 Cells after 72 hrs by MTT assay; type: functional, cell-based; conditions: HepG2, 72 h
A549 [35] = assay: Cytotoxicity against human A549 Cells after 24 to 48 hrs by MTT assay; type: functional, cell-based
HT-29 [36] = assay: Cytotoxicity against human HT-29 Cells; type: functional, cell-based
AGS [37] = assay: Cytotoxicity against human AGS Cells by MTT assay; type: functional, cell-based
HepG2 [38] = assay: Cytotoxicity against human HepG2 Cells after 48 hrs by MTT assay; type: functional, cell-based; conditions: HepG2, 48 h
HSC-2 = assay: Cytotoxicity against human HSC2 cells; type: functional, cell-based
HEp-2 = assay: Cytotoxicity against human Hep2 Cells; type: functional, cell-based
HCT-116 [39] = assay: Cytotoxicity against human HCT116 Cells; type: functional, cell-based
MDA-MB-231 [40] = assay: Anticancer activity against human MDA-MB-231 cells after 72 hrs by MTT assay; type: functional, cell-based; conditions: MDA-MB-231, 72 h
HSC-3 = assay: Cytotoxicity against human HSC3 cells; type: functional, cell-based
[41] = Anticancer activity against human LX2 cells after 72 hrs by MTT assay; type: functional, cell-based; conditions: LX-2, 72 h
HCT-116 [42] = assay: Growth inhibition of human HCT116 cells relative to control; type: functional
BXPC-3 = assay: Cytotoxicity against human BxPC3 cells; type: functional, cell-based
NCI-H1299 = assay: Cytotoxicity against human H1299 cells; type: functional, cell-based
MDA-MB-231 [43] = assay: Cytotoxicity against human MDA-MB-231 cells; type: functional, cell-based
[44] = Cytotoxicity against human LX2 Cells after 48 hrs by MTT assay; type: functional; conditions: LX-2, 48 h
MCF7 [45] = assay: Cytotoxicity against human MCF7 Cells after 48 hrs by MTS assay; type: functional, cell-based; conditions: MCF7, 48 h
SW-620 = assay: Cytotoxicity against human SW620 Cells; type: functional, cell-based
GES1 = assay: Cytotoxicity against human GES-1 cells; type: functional, cell-based
U373 MG = assay: Cytotoxicity against human U373MG Cells 48 hrs by MTS assay; type: functional, cell-based, U-373MG ATCC
DU-145 = assay: Anticancer activity against human DU145 cells; type: functional, cell-based
MCF7 [46] = assay: Cytotoxicity against human MCF7 cells; type: functional, cell-based
EA.hy 926 = assay: Cytotoxicity against human EAhy926 Cells after 72 hrs by MTT assay; type: functional, cell-based; conditions: EA.hy 926, 72 h
[47] = biological target: Tyrosine-protein kinase ABL1 (Homo sapiens, UniProt P00519, Y253F); assay: Inhibition of ABL Y253F mutant (unknown origin)
[48] = biological target: Tyrosine-protein kinase ABL1 (Homo sapiens, UniProt P00519); assay: Inhibition of Wild type ABL (unknown origin)
[49] = biological target: Tyrosine-protein kinase ABL1 (Homo sapiens, UniProt P00519, Q252H); assay: Inhibition of ABL Q252H mutant (unknown origin)
[50] = biological target: Tyrosine-protein kinase ABL1 (Homo sapiens, UniProt P00519, T315I); assay: Inhibition of ABL T315I mutant (unknown origin)

SMILES: COc1cc(/C=C/C2=NN(c3nc(/N=C4/CC[C@H]5[C@@H]6CC[C@H]7C[C@@H](OC(C)=O)CC[C@]7(C)[C@H]6CC[C@]45C)cc(=O)[nH]3)C(/C=C/c3cc(OC)cc(OC)c3)C2)cc(OC)c1 (some centres undefined)
IC50 (SK-OV-3 [6]): 2.5 µM

SMILES: Cc1ccc2ncnc(Oc3ccccc3/C=C/C(=O)/C=C/c3c(Cl)cccc3Cl)c2c1
IC50 (PC-3 [7]): 1.37 µM
IC50 (MGC-803 [8]): 0.85 µM
IC50 (Bcap37): 4.98 µM

SMILES: COc1cc(/C=C/C(=O)C(=Cc2ccncc2)C(=O)/C=C/c2ccc(O)c(OC)c2)ccc1O
IC50 (K562 [1]): 1.1 µM
IC50 [9]: 0.6 µM

The next lines start with results.

IC50 (K562 [1]): 1.42 µM
SMILES: COc1cccc2c1C(=O)c1c(O)c3c(c(O)c1C2=O)C[C@@](O)(C(=O)CO)C[C@@H]3O[C@H]1C[C@H](N)[C@H](O)[C@H](C)O1 [DOXORUBICIN]
IC50 (THP-1): 0.3 µM
IC50 (HeLa [2]): 2.02 µM
IC50 (HepG2 [3]): 14.7 µM
IC50 (L02 [4]): 6.93 µM
IC50 (HepG2 [5]): 0.57 µM

IC50 (BGC-823 [10]): > 20 µM
IC50 (HeLa [16]): 4.33 µM
IC50 (PC-3 [20]): 20.9 µM
IC50 (SGC-7901 [25]): > 20 µM
IC50 (MCF7 [28]): 17.1 µM
IC50 (MGC-803 [30]): > 20 µM
IC50 (SMMC-7721): 12.6 µM
IC50 (MDA-MB-231 [40]): 11.5 µM
IC50 (DU-145): 31.7 µM
SMILES: COc1cc(/C=C/C(=O)CC(=O)/C=C/c2ccc(O)c(OC)c2)ccc1O [CURCUMIN]
IC50 (PC-3 [7]): 20 µM
IC50 (HT-29 [11]): 23.4 µM
growth inhibition (GI) (KBM5): 46%
IC50 (MCF7 [12]): 9.28 µM
IC50 [13]: > 50 µM
IC50 (SW480): 15 to 17 µM
IC50 (Caco-2): 28 µM
IC50 [14]: > 50 µM
IC50 [15]: 32 µM
IC50 (CT26): > 20 µM
IC50 (U-251): 15.3 µM
IC50 [17]: 39.6 µM
IC50 (BGC-823 [18]): 17.5 µM
IC50 [19]: > 50 µM
IC50 (RWPE-1): 15.6 µM
IC50 (AGS [21]): 9.77 µM
IC50 (HSC-4): 7.1 µM
IC50 (L02 [22]): 32.3 µM
IC50 (K562 [23]): 36 to 38 µM
IC50 (SGC-7901 [24]): 22.5 µM
IC50 (NIH3T3): 9.51 µM
IC50 (A549 [26]): 25.3 µM
IC50 (U-87 MG): 7.15 µM
IC50 [27]: 133 µM
IC50 (A549 [29]): 52.3 µM
IC50 (SK-OV-3 [31]): 6.7 µM
IC50 [32]: > 50 µM
IC50 [33]: > 50 µM
IC50 (HL-60): 6.3 µM
IC50 (CHO-K1): 21.3 µM
IC50 (HepG2 [34]): 20.3 to 24.9 µM
IC50 (A549 [35]): 28 to 30 µM
IC50 (HT-29 [36]): 18.7 to 66.9 µM
IC50 (AGS [37]): 20.8 µM
IC50 (HepG2 [38]): 9.44 µM
IC50 (MGC-803 [8]): 21.2 µM
IC50 (HSC-2): 7.8 µM
IC50 (HeLa [2]): 14 to 22.2 µM
IC50 (HEp-2): 21.4 µM
IC50 (HCT-116 [39]): 5.51 to 20 µM
IC50 (HSC-3): 11 µM
IC50 [41]: 14 µM
growth inhibition (GI) (HCT-116 [42]): 46.87%
IC50 (BXPC-3): 18.2 µM
IC50 (NCI-H1299): 18.9 µM
IC50 (MDA-MB-231 [43]): 26.5 µM
IC50 [44]: 9.14 µM
IC50 (MCF7 [45]): 68.2 µM
IC50 (SW-620): > 50 µM
IC50 (GES1): 29.1 µM
IC50 (U373 MG): > 50 µM
IC50 (MCF7 [46]): 22.5 µM
IC50 (EA.hy 926): 20 µM
IC50 (HepG2 [5]): 36.8 µM

IC50 [47]: 0.0798 µM
IC50 [48]: 0.0833 µM
IC50 [49]: 0.185 µM
IC50 [50]: 0.0673 µM
SMILES: COc1cc(C=C(C(=O)/C=C/c2ccc(O)c(OC)c2)C(=O)/C=C/c2ccc(O)c(OC)c2)ccc1O

IC50 (K562 [1]): 4.8 µM
SMILES: C/C(=C/C(=O)c1ccccc1)Nc1cccc(/C=C2\CN(C)C/C(=C\c3cccc(N/C(C)=C/C(=O)c4ccccc4)c3)C2=O)c1
IC50 (THP-1): 1.17 µM
IC50 (HeLa [2]): > 10 µM
IC50 (L02 [4]): 13.1 µM
IC50 (HepG2 [5]): 5.52 µM
